Source: patent US20090203577A1 (EXELIXIS, INC., priority 2005, published 2009)
pEC50: −log10 of the molar value. Converted amounts (≈) assume the structure as drawn.

Key:
[1] = target: T1, human farnesoid X receptor (Homo sapiens, UniProt Q96RI1); assay: FXR in vitro assays (farnesoid X receptor/ECREx7 co-transfection assay, TR-FRET assay), Table I; format: cell-based; details: for pEC50: agonist activity, one or more of the in vitro assays, read-out: EC50; for Emax: read-out: % Efficacy
T1 construct: CMX-farnesoid X receptor (full length human farnesoid X receptor); expressed in transfected cells; host or cells: CV-1 African Green Monkey Kidney cells
T1 sequence (Q96RI1 1-472 isoform Q96RI1-2): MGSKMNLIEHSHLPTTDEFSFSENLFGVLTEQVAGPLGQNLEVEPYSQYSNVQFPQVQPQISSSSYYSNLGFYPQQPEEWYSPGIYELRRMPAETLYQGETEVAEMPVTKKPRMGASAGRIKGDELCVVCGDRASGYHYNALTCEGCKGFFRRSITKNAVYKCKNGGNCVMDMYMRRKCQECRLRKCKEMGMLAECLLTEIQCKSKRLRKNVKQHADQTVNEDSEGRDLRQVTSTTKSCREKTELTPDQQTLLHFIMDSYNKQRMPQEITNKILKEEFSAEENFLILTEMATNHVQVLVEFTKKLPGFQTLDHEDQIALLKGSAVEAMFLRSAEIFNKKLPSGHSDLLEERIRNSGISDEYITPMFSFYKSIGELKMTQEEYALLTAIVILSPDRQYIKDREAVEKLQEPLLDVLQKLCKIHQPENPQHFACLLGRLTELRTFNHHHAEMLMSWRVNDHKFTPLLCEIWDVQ
T1 sequence (P19793 1-462 partner): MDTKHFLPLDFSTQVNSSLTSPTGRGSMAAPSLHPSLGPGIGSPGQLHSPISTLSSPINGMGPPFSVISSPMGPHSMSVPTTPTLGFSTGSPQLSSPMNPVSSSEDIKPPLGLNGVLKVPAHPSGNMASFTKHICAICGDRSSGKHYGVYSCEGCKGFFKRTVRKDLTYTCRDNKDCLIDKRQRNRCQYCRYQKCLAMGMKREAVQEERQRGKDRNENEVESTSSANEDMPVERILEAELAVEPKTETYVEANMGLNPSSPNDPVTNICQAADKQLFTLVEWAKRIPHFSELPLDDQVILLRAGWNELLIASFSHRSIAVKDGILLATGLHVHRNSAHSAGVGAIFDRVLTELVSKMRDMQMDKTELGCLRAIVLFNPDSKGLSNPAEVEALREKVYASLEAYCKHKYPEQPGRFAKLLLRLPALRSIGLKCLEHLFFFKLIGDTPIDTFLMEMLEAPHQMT
Outline: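 CV-1 monkey kidney cells transfected for an FXR/ECREx7 luciferase co-transfection reporter; luciferase read 18-20 h later in lysates. 8-point dose-response at ½-log spacing, 4 wells per point; EC50/IC50 from four-parameter Hill fit, averaged over at least 3 independent experiments.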

physchem = details: pH 7.4, aqueous buffer, kinetic from dmso stock
Protocol: The kinetic solubility of test compounds in buffer was evaluated using a 96 well filtration plate format. A 500 μM assay solution in PBS, pH7.4 (or other assay buffer, as needed) was generated form a DMSO stock solution (up to 10 mM). Samples were transferred to a 96 Millipore MultiScreen HTS 96-well Filter plate (Cat# MSSLBPC10) mixed by shaking for 1.5 hours and processed by filtration prior to quantitation by HPLC-UV. Amiodarone and testosterone were used as reference controls.

SMILES | pEC50 [1] | Emax [1] [%] | solubility kinetic at 1.5 h (physchem) [µM]
CC(C)OC(=O)C1=CN(C(=O)N2CCN(C(C)C)CC2)CC(C)(C)c2c1[nH]c1ccccc21 [Example 30, 1-methylethyl 1,1-dimethyl-3-{[4-(1-methylethyl)piperazin-1-yl)carbonyl}-1,2,3,6-tetrahydroazepino[4,5-b]indole-5-carboxylate] | 6.00 to 7.00 | > 100 | > 10
CCCN1CCN(C(=O)N2C=C(C(=O)OC(C)C)c3[nH]c4ccccc4c3C(C)(C)C2)CC1 [Example 31] | 6.00 to 7.00 | > 100 | 1 to 10 (≈ 0.453 to 4.53 µg/mL)
CCN(CC)C1CCN(C(=O)N2C=C(C(=O)OC(C)C)c3[nH]c4ccccc4c3C(C)(C)C2)CC1 [Example 33, 1-methylethyl 3-{[4-0 (diethylamino)piperidin-1-yl]carbonyl}-1,1-dimethyl-1,2,3,6-tetrahydroazepino[4,5-b]indole-5-carboxylate] | 5.00 to 6.00 | 60 to 80 | > 10
CC(C)CCC(=O)N1C=C(C(=O)OC(C)C)c2[nH]c3ccccc3c2C(C)(C)C1 [Example 34, 1-methylethyl 1,1-dimethyl-3-(4-methylpentanoyl)-1,2,3,6-tetrahydro azepino [4,5-b]indole-5-carboxylate] | 7.00 to 8.00 | > 100 | > 10
CC(C)OC(=O)C1=CN(C(=O)N2CCN(C)CC2)CC(C)(C)c2c1[nH]c1cc(F)ccc21 [Example 35, 1-methylethyl 8-fluoro-1,1-dimethyl-3-[(4-methylpiperazin-1-yl)carbonyl]-1,2,3,6-tetrahydroazepino[4,5-b]indole-5-carboxylate] | 7.00 to 8.00 | > 100 | > 10
CCN1CCN(C(=O)N2C=C(C(=O)OC(C)C)c3[nH]c4cc(F)ccc4c3C(C)(C)C2)CC1 [Example 36, 1-methylethyl 3-[(4-ethylpiperazin-1-yl)carbonyl]-8-fluoro-1,1-dimethyl-1,2,3,6-tetrahydroazepino[4,5-b]indole-5-carboxylate] | 7.00 to 8.00 | > 100 | > 10
CC(C)OC(=O)C1=CN(C(=O)N2CCN(CC(=O)N3CCCC3)CC2)CC(C)(C)c2c1[nH]c1ccccc21 [Example 37, 1-methylethyl 1,1-dimethyl-3-{[4-(2-oxo-2-pyrrolidin-1-ylethyl)piperazin-1-yl]carbonyl}-1,2,3,6-tetrahydroazepino [4,5-b]indole-5-carboxylate] | 6.00 to 7.00 | > 100 | > 10
CCN(CC)CCN1CCN(C(=O)N2C=C(C(=O)OC(C)C)c3[nH]c4ccccc4c3C(C)(C)C2)CC1 [Example 38, 1-methylethyl 3-({4-[2-(diethylamino)ethyl]piperazin-1-yl}carbonyl)-1,1-dimethyl-1,2,3,6-tetrahydroazepino[4,5-b]indole-5-carboxylate] | 5.00 to 6.00 | 60 to 80 | > 10
CC(C)OC(=O)C1=CN(C(=O)N2CCCC(N(C)C)C2)CC(C)(C)c2c1[nH]c1ccccc21 (stereo not drawn) [Example 39, 1-methylethyl 3-{[3-(dimethylamino)piperidin-1-yl]carbonyl}-1,1-dimethyl-1,2,3,6-tetrahydroazepino[4,5-b]indole-5-carboxylate] | 6.00 to 7.00 | > 100 | > 10
CC(C)OC(=O)C1=CN(C(=O)N2CCC(N3CCN(C)CC3)CC2)CC(C)(C)c2c1[nH]c1ccccc21 [Example 41, 1-methylethyl 1,1-dimethyl-3{[4-(4-methylpiperazin-1-yl)piperidin-1-yl]carbonyl}-1,2,3,6-tetrahydroazepino [4,5-b]indole-5-carboxylate] | 5.00 to 6.00 | 40 to 60 | > 10
CC(C)OC(=O)C1=CN(C(=O)N2C[C@@H]3C[C@H]2CN3C)CC(C)(C)c2c1[nH]c1ccccc21 [Example 42, 1-methylethyl 1,1-dimethyl-3-{[(1S,4S)-5-methyl-2,5-diazabicyclo[2.2.1]hept-2-yl]carbonyl}-1,2,3,6-tetrahydroazepino [4,5-b]indole-5-carboxylate] | 6.00 to 7.00 | > 100 | > 10
CC(C)OC(=O)C1=CN(C(=O)N2CCCN(C)CC2)CC(C)(C)c2c1[nH]c1ccccc21 [Example 43, 1-methyl 1,1-dimethyl-3-[(4-methyl-1,4-diazepan-1-yl)carbonyl]-1,2,3,6-tetrahydroazepino[4,5-b]indole-5-carboxylate] | 6.00 to 7.00 | > 100 | > 10
CC(C)OC(=O)C1=CN(C(=O)NC2CCCCC2)CC(C)(C)c2c1[nH]c1ccccc21 [Example 45, 1-methylethyl 3-[(cyclohexylamino)carbonyl]-1,1-dimethyl-1,2,3,6-tetrahydroazepino[4,5-b]indole-5-carboxylate] | 7.00 to 8.00 | > 100 | 1 to 10 (≈ 0.424 to 4.24 µg/mL)
CC(C)OC(=O)C1=CN(C(=O)N2CCOCC2)CC(C)(C)c2c1[nH]c1ccccc21 [Example 47, 1-methylethyl 1,1-dimethyl-3-(morpholin-4-ylcarbonyl)-1,2,3,6-tetrahydrazepino[4,5-b]indole-5-carboxylate] | 7.00 to 8.00 | > 100 | > 10
CC(C)OC(=O)C1=CN(C(=O)N2CCCC(CN(C)C)C2)CC(C)(C)c2c1[nH]c1ccccc21 (stereo not drawn) [Example 48, 1-methylethyl 3-({3-[(dimethylamino)methyl]piperidin-1-yl}carbonyl)-1,1-dimethyl-1,2,3,6-tetrahydroazepino[4,5-b]indole-5-carboxylate] | 5.00 to 6.00 | > 100 | > 10
CC(C)OC(=O)C1=CN(C(=O)N2CCC[C@@H](CN(C)C)C2)CC(C)(C)c2c1[nH]c1ccccc21 [Example 50, 1-methylethyl 3-({(3S)-3-[(dimethylamino)methyl]piperidin-1-yl}carbonyl)-1,1-dimethyl-1,2,3,6-tetrahydroazepino[4,5-b]indole-5-carboxylate] | 5.00 to 6.00 | 60 to 80 | > 10
CC(C)OC(=O)C1=CN(C(=O)N2CCC[C@H](CN(C)C)C2)CC(C)(C)c2c1[nH]c1ccccc21 [Example 51, 1-methylethyl 3-({(3R)-3-[(dimethylamino)methyl]piperidin-1-yl}carbonyl)-1,1-dimethyl-1,2,3,6-tetrahydroazepino[4,5-b]indole-5-carboxylate] | 5.00 to 6.00 | > 100 | > 10
CC(C)OC(=O)C1=CN(C(=O)N2CCCC(CN3CCOCC3)C2)CC(C)(C)c2c1[nH]c1ccccc21 (stereo not drawn) [Example 53, 1-methylethyl 1,1-dimethyl-3{[3-(morpholin-4-ylmethyl)piperidin-1-yl]carbonyl}-1,2,3,6-tetrahydroazepino [4,5-b]indole-5-carboxylate] | 6.00 to 7.00 | > 100 | > 10
CC(C)OC(=O)C1=CN(C(=O)N[C@H]2CCCNC2)CC(C)(C)c2c1[nH]c1ccccc21 [Example 54, 1-mcthylethyl 1,1-dimethyl-3-{[(3S)-piperidin-3-ylamino]carbonyl}-1,2,3,6-tetrahydroazepino[4,5-b]indole-5-carboxylate] | 5.00 to 6.00 | 40 to 60 | > 10
CC(C)OC(=O)C1=CN(C(=O)NC2CCCNC2)CC(C)(C)c2c1[nH]c1ccccc21 (stereo not drawn) [Example 56, 1-methylethyl 1,1-dimethyl-3-[(piperidin-3-ylamino)carbonyl]-1,2,3,6-tetrahydro azepino[4,5-b]indole-5-carboxylate] | 5.00 to 6.00 | < 40 | > 10
CC(C)OC(=O)C1=CN(C(=O)N2CCC[C@H](CN3CCOCC3)C2)CC(C)(C)c2c1[nH]c1ccccc21 [Example 57, 1-methylethyl 1,1-dimethyl-3-{[(3R)-3-(morpholin-4-ylmethyl)piperidin-1-yl]carbonyl}-1,2,3,6-tetrahydroazepino [4,5-b]indole-5-carboxylate] | 5.00 to 6.00 | > 100 | > 10
